Results on 20 molecules are retold here after patent publication US9896441B2 (Lycera Corporation, priority 2014, dated 2018).

Bounds are passed on as bounds.

One test deals with T1, Gal4-RORγ-LBD (Homo sapiens, UniProt P51449).
T1 construct: expressed in transfected cells
T1 sequence (P51449 269-508 limits assumed): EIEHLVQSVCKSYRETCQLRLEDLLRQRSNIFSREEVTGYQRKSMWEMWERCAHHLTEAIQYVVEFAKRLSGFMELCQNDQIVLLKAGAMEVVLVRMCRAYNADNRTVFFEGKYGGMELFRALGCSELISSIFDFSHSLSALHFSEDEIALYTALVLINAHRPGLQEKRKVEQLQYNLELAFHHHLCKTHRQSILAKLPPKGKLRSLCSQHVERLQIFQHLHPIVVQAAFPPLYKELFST
Put plainly: Gal4-RORγ Luciferase Reporter Assay in HEK-293T Cells. The class given is cell-based. As to conditions: HEK-293 cells, luciferase reporter, with ursolic acid. The gist of the method:
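HEK-293 cells were co-transfected with Gal4-RORγ-LBD and a Gal4-luciferase reporter, then exposed overnight at 37 °C to compounds with […] ursolic acid present (0.2% DMSO). Luminescence was read with One-Glo after 10 min at RT, untreated signal was set as 100, and Max Response was taken as the upper plateau of a 4-parameter logistic fit.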

Another test addresses T2, RORγ-LBD (Homo sapiens, UniProt P51449).
T2 construct: made in house; host or cells: SF9 cells (baculovirus); used as diluted lysate
T2 sequence (P51449 269-508 limits assumed): T1 sequence (P51449 269-508 limits assumed)
Nature of the test: RORγ-Ligand Binding Domain (LBD) TR-FRET Assay. The test is classed as biochemical. Particulars: RORγ-LBD TR-FRET. The gist of the method:
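This TR-FRET coactivator assay pairs baculovirus-expressed His-RORγ-LBD (~3 nM final) with biotin-SRC1 LXXLL peptide at 200 nM final in pH 7.0 Tris/KCl/EDTA/DTT/BSA buffer.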

For `COC(=O)CC[C@H]1CN(S(=O)(=O)c2cccc(C(F)(F)F)c2)c2cc(/C=C(\C)c3c(Cl)cccc3Cl)ccc2O1` [Example 86AF, (S,E)-methyl 3-(6-(2-(2,6-dichlorophenyl)prop-1-en-1-yl)-4-((3-(trifluoromethyl)phenyl)-sulfonyl)-3,4-dihydro-2H-benzo[b][1,4]oxazin-2-yl)propanoate], the values for the EC50 at Gal4-RORγ-LBD and on RORγ-LBD were 500 to 5000 nM and less than 500 nM, respectively.

Consider `C/C(=C\c1ccc2c(c1)N(S(=O)(=O)c1cccc(C(F)(F)F)c1)C[C@H](CCC(=O)O)O2)c1ccccc1C(F)(F)F` [Example 86AG, (S,E)-3-(6-(2-(2-(trifluoromethyl)-phenyl)prop-1-en-1-yl)-4-((3-(trifluoromethyl)phenyl)sulfonyl)-3,4-dihydro-2H-benzo[b][1,4]-oxazin-2-yl)propanoic acid], for which the EC50 at Gal4-RORγ-LBD and at RORγ-LBD was less than 500 nM in each case.

Take `COC(=O)CC[C@H]1CN(S(=O)(=O)c2cccc(C(F)(F)F)c2)c2cc(/C=C(\C)c3ccccc3C(F)(F)F)ccc2O1` [Example 86AH, (S,E)-methyl 3-(6-(2-(2-(trifluoromethyl)phenyl)prop-1-en-1-yl)-4-((3-(trifluoromethyl)phenyl)-sulfonyl)-3,4-dihydro-2H-benzo[b][1,4]oxazin-2-yl)propanoate]: the results for the EC50 at Gal4-RORγ-LBD and at RORγ-LBD were 500 to 5000 nM and less than 500 nM, respectively.

For the molecule `COC(=O)CC[C@H]1CN(S(=O)(=O)c2cccc(C(F)(F)F)c2)c2cc(/C=C(\C)c3ccccc3C)ccc2O1` [Example 86AL, (S,E)-methyl 3-(6-(2-(o-tolyl)prop-1-en-1-yl)-4-((3-(trifluoromethyl)-phenyl)sulfonyl)-3,4-dihydro-2H-benzo[b][1,4]oxazin-2-yl)propanoate], the figures for the EC50 at Gal4-RORγ-LBD and on RORγ-LBD were 500 to 5000 nM and less than 500 nM, respectively.

`C/C(=C\c1ccc2c(c1)N(S(=O)(=O)c1cccc(C(F)(F)F)c1C)C[C@H](CCC(=O)O)O2)c1c(F)cccc1Cl` [Example 86AM, (S,E)-3-(6-(2-(2-chloro-6-fluorophenyl)prop-1-en-1-yl)-4-((2-methyl-3-(trifluoromethyl)-phenyl)sulfonyl)-3,4-dihydro-2H-benzo[i,4]oxazin-2-yl)propanoic acid]: the figures for the EC50 on Gal4-RORγ-LBD and on RORγ-LBD were 500 to 5000 nM and less than 500 nM, respectively.

`COC(=O)CC[C@H]1CN(S(=O)(=O)c2cccc(C(F)(F)F)c2C)c2cc(/C=C(\C)c3c(F)cccc3Cl)ccc2O1` [Example 86AN, (S,E)-methyl 3-(6-(2-(2-chloro-6-fluorophenyl)prop-1-en-1-yl)-4-((2-methyl-3-(trifluoromethyl)-phenyl)sulfonyl)-3,4-dihydro-2H-benzo[b][1,4]oxazin-2-yl)propanoate]: the EC50 at Gal4-RORγ-LBD is 500 to 5000 nM; at RORγ-LBD, less than 500 nM.

Turning to `C/C(=C\c1ccc2c(c1)N(S(=O)(=O)c1ccc(C)c(C(F)(F)F)c1)C[C@H](CCC(=O)O)O2)c1c(F)cccc1Cl` [Example 86AO, (S,E)-3-(6-(2-(2-chloro-6-fluorophenyl)prop-1-en-1-yl)-4-((4-methyl-3-(trifluoromethyl)-phenyl)sulfonyl)-3,4-dihydro-2H-benzo[b][1,4]oxazin-2-yl)propanoic acid], the EC50 at Gal4-RORγ-LBD and on RORγ-LBD was less than 500 nM in each case.

As to `COC(=O)CC[C@H]1CN(S(=O)(=O)c2cc(F)cc(C(F)(F)F)c2)c2cc(/C=C(\C)c3c(F)cccc3Cl)ccc2O1` [Example 86AR, (S,E)-methyl 3-(6-(2-(2-chloro-6-fluorophenyl)prop-1-en-1-yl)-4-((3-fluoro-5-(trifluoromethyl)-phenyl)sulfonyl)-3,4-dihydro-2H-benzo[b][1,4]oxazin-2-yl)propanoate], the EC50 at Gal4-RORγ-LBD was 500 to 5000 nM; on RORγ-LBD, less than 500 nM.

For the molecule `C/C(=C\c1ccc2c(c1)N(S(=O)(=O)c1ccc(F)c(OC(F)F)c1)C[C@H](CCC(=O)O)O2)c1c(F)cccc1Cl` [Example 86AS, (S,E)-3-(6-(2-(2-chloro-6-fluorophenyl)prop-1-en-1-yl)-4-((3-(difluoromethoxy)-4-fluorophenyl)sulfonyl)-3,4-dihydro-2H-benzo[b][1,4]oxazin-2-yl)propanoic acid], the EC50 on Gal4-RORγ-LBD and on RORγ-LBD was less than 500 nM in each case.

Turning to `COC(=O)CC[C@H]1CN(S(=O)(=O)c2ccc(F)c(OC(F)F)c2)c2cc(/C=C(\C)c3c(F)cccc3Cl)ccc2O1` [Example 86AT, (S,E)-methyl 3-(6-(2-(2-chloro-6-fluorophenyl)prop-1-en-1-yl)-4-((3-(difluoromethoxy)-4-fluorophenyl)sulfonyl)-3,4-dihydro-2H-benzo[b][1,4]oxazin-2-yl)propanoate], the EC50 on Gal4-RORγ-LBD and at RORγ-LBD was less than 500 nM in each case.

`CCOc1nn(CC)cc1S(=O)(=O)N1C[C@H](CCC(=O)O)Oc2ccc(/C=C(\C)c3c(Cl)cccc3C(F)(F)F)cc21` [Example 86AW, (S,E)-3-(6-(2-(2-chloro-6-(trifluoromethyl)phenyl)prop-1-en-1-yl)-4-((3-ethoxy-1-ethyl-1H-pyrazol-4-yl)sulfonyl)-3,4-dihydro-2H-benzo[b][1,4]oxazin-2-yl)propanoic acid]: the EC50 on Gal4-RORγ-LBD and on RORγ-LBD was less than 500 nM in each case.

On to `CCOc1nn(CC)cc1S(=O)(=O)N1C[C@H](CCC(=O)OC)Oc2ccc(/C=C(\C)c3c(Cl)cccc3C(F)(F)F)cc21` [Example 86AX, methyl (S,E)-3-(6-(2-(2-chloro-6-(trifluoromethyl)phenyl)prop-1-en-1-yl)-4-((3-ethoxy-1-ethyl-1H-pyrazol-4-yl)sulfonyl)-3,4-dihydro-2H-benzo[b][1,4]oxazin-2-yl)propanoate], for which the EC50 at Gal4-RORγ-LBD was 500 to 5000 nM; on RORγ-LBD it was less than 500 nM.

Regarding `C/C(=C\c1ccc2c(c1)N(S(=O)(=O)c1cn(C(C)C)nc1OCCO)C[C@H](CCC(=O)O)O2)c1c(F)cccc1Cl` [Example 86AY, (S,E)-3-(6-(2-(2-chloro-6-fluorophenyl)prop-1-en-1-yl)-4-((3-(2-hydroxyethoxy)-1-isopropyl-1H-pyrazol-4-yl)sulfonyl)-3,4-dihydro-2H-benzo[b][1,4]oxazin-2-yl)propanoic acid], the EC50 at Gal4-RORγ-LBD and on RORγ-LBD was less than 500 nM in each case.

As to `C/C(=C\c1ccc2c(c1)N(S(=O)(=O)c1cn(CC(F)F)nc1OCCO)C[C@H](CCC(=O)O)O2)c1c(F)cccc1Cl` [Example 86AZ, (S)-3-(6-(2-(2-chloro-6-fluorophenyl)prop-1-en-1-yl)-4-((1-(2,2-difluoroethyl)-3-(2-hydroxyethoxy)-1H-pyrazol-4-yl)sulfonyl)-3,4-dihydro-2H-benzo[b][1,4]oxazin-2-yl)propanoic acid], the EC50 at Gal4-RORγ-LBD was 500 to 5000 nM; at RORγ-LBD it was less than 500 nM.

With `COC(=O)CC[C@H]1CN(S(=O)(=O)c2ccc(F)c(C(F)(F)F)c2)c2cc(/C=C(\C)c3c(F)cccc3Cl)ccc2O1` [Example 86B, (S,E)-methyl 3-(6-(2-(2-chloro-6-fluorophenyl)prop-1-en-1-yl)-4-((4-fluoro-3-(trifluoromethyl)-phenyl)sulfonyl)-3,4-dihydro-2H-benzo[b][1,4]oxazin-2-yl)propanoate], the EC50 on Gal4-RORγ-LBD and on RORγ-LBD was less than 500 nM in each case.

As to `C/C(=C\c1ccc2c(c1)N(S(=O)(=O)c1ccc(F)c(C3CC3)c1)C[C@H](CCC(=O)O)O2)c1c(F)cccc1Cl` [Example 86C, (S,E)-3-(6-(2-(2-chloro-6-fluorophenyl)prop-1-en-1-yl)-4-((3-cyclopropyl-4-fluorophenyl)-sulfonyl)-3,4-dihydro-2H-benzo[b][1,4]oxazin-2-yl)-propanoic acid], the EC50 at Gal4-RORγ-LBD and at RORγ-LBD was less than 500 nM throughout.

Turning to `COC(=O)CC[C@H]1CN(S(=O)(=O)c2ccc(F)c(C3CC3)c2)c2cc(/C=C(\C)c3c(F)cccc3Cl)ccc2O1` [Example 86D, (S,E)-methyl 3-(6-(2-(2-chloro-6-fluorophenyl)prop-1-en-1-yl)-4-((3-cyclopropyl-4-fluorophenyl)-sulfonyl)-3,4-dihydro-2H-benzo[b][1,4]oxazin-2-yl)propanoate], the EC50 at Gal4-RORγ-LBD and on RORγ-LBD was less than 500 nM in each case.

With `C/C(=C\c1ccc2c(c1)N(S(=O)(=O)c1ccc(F)c(Cl)c1)C[C@H](CCC(=O)O)O2)c1c(F)cccc1Cl` [Example 86E, (S,E)-3-(4-((3-chloro-4-fluorophenyl)sulfonyl)-6-(2-(2-chloro-6-fluorophenyl)prop-1-en-1-yl)-3,4-dihydro-2H-benzo[b][1,4]oxazin-2-yl)propanoic acid], the EC50 at Gal4-RORγ-LBD is 500 to 5000 nM; at RORγ-LBD, less than 500 nM.

With `COC(=O)CC[C@H]1CN(S(=O)(=O)c2ccc(F)c(Cl)c2)c2cc(/C=C(\C)c3c(F)cccc3Cl)ccc2O1` [Example 86F, (S,E)-methyl 3-(4-((3-chloro-4-fluorophenyl)sulfonyl)-6-(2-(2-chloro-6-fluorophenyl)prop-1-en-1-yl)-3,4-dihydro-2H-benzo-[b][1,4]oxazin-2-yl)propanoate], the EC50 at Gal4-RORγ-LBD and on RORγ-LBD was less than 500 nM in each case.

As for `CCn1cc(S(=O)(=O)N2C[C@H](CCC(=O)O)Oc3ccc(/C=C(\C)c4c(F)cccc4Cl)cc32)c(Cl)n1` [Example 86G, (S,E)-3-(4-((3-chloro-1-ethyl-1H-pyrazol-4-yl)sulfonyl)-6-(2-(2-chloro-6-fluorophenyl)prop-1-en-1-yl)-3,4-dihydro-2H-benzo[b][1,4]oxazin-2-yl)propanoic acid], the concentration giving a half-maximal response (EC50) at Gal4-RORγ-LBD is 500 to 5000 nM; at RORγ-LBD, less than 500 nM.
